From US20100029973A1, “Fatty acid analogues for equilibrating bone mineral density” (priority 2005, published 2010)

Tests used:
femoral BMD = femoral BMD in rats by DXA; type: in vivo, rat; conditions: female Fischer rats, 50 mg/kg body weight, intragastric gavage, 4 months
Method: Fifty female Fischer rats were divided into 5 groups and were given methocel (control group), Wyeth 14,643, fenofibrate, tetradecylthioacetic acid (TTA) and pioglitazone (50 mg/kg body weight) by intragastric gavage for 4 months. Body weight was registered throughout the study. BMD was measured by double x-ray absorptiometry (DXA). Histomorhometry of femur was performed, and mechanical strength in the femoral shaft and collum femoris was measured.

human monocytes = test: differentiation of human monocytes into osteoclasts; type: cell-based
[1] = test system: preosteoclast cell line RAW264.7; test: proliferation of preosteoclast cell line RAW264.7; type: cell-based
[2] = test system: preosteoblast cell line MC3T3-E1; test: release of OPG, RANKL and IL6 from preosteoblast cell line MC3T3-E1; type: cell-based; conditions: preosteoblasts (MC3T3-E1)
Excerpt: The effect of the PPAR agonists on release of osteoprotegerin (OPG), RANKL and IL6 from the preosteoblast cell line MC3T3-E1 was investigated. […] Wyeth 14643, fenofibrate and TTA were also shown to stimulate OPG release and inhibit IL6 release from preosteoblasts, while no effects on RANKL could be detected.

[3] = test system: mitochondrial β-oxidation in the liver; test: activity of mitochondrial β-oxidation in the liver; conditions: fatty acid analogues with sulphur in 3, 5, 7 position vs palmitic acid control
Excerpt: Although all fatty acid anagoges with an odd positioning of the β-oxidation blocker X away from the carboxylic end block β-oxidation, the extent of their biological effect may be variable. This is due to the difference in biological degradation time of the various compounds. The inventors have done experiments to show the effect of moving X further from the carboxylic fatty acid end. In these experiments the activity (in nmol/min/mg/protein) of mitochondrial β-oxidation in the liver of fatty acid analogues was measured with sulphur in the 3, 5 and 7 positions relative to the carboxyl end. The activities were 0.81 for sulphur in the 3rd position, 0.61 for sulphur in the 5th position, 0.58 for sulphur in the 7th position, and 0.47 for palmitic acid, the non β-oxidation blocking control. […] However, as the decline is great for going from the 3rd to 5th position, but small going from the 5th to 7th position, it is reasonable to assume that this decline will continue to be less as one moves out the chain, and thus that it will be very far out indeed before no effect (compared to the control) is seen at all.

[4] = degradation time in vivo of ω-oxidation-blocked fatty acid analogue; conditions: triple bond at methyl end blocking ω-oxidation
Excerpt: ω-oxidation is believed to be the main pathway for degradation of the fatty acid analogues as described with a block in the X position. Experiments were thus performed where R′ was changed to block w-oxidation, by introducing a triple bond at the methyl end of the fatty acid analogue. […] This is important for the use of the fatty acid analogues in pharmaceutical preparation, as it may potentiate the effects of the β-oxidizable fatty acid analogues by further slowing down their breakdown.

CC(C)OC(=O)C(C)(C)Oc1ccc(C(=O)c2ccc(Cl)cc2)cc1 [fenofibrate]
change in femoral BMD versus control rats (femoral BMD): 5.7%

Cc1cccc(Nc2cc(Cl)nc(SCC(=O)O)n2)c1C [Wyeth 14,643]
differentiation of human monocytes into osteoclasts (human monocytes): inhibit the differentiation of human monocytes into osteoclasts in a dose-dependent manner
proliferation of RAW264.7 [1]: inhibited the proliferation
change in femoral BMD versus control rats (femoral BMD): 7%
IL6 release [2]: stimulated
OPG release [2]: stimulated
RANKL release [2]: no effects
IL6 release ([2]; listed as Wyeth 14643): inhibit
OPG release ([2]; listed as Wyeth 14643): stimulate

CCCCCCCCCCCCCCCC(=O)O [palmitic acid]
activity of mitochondrial β-oxidation in the liver [3]: 0.47 nmol/min/mg/protein

CCc1ccc(CCOc2ccc(CC3SC(=O)NC3=O)cc2)nc1 (stereo not drawn) [pioglitazone]
change in femoral BMD versus control rats (femoral BMD): −3%

CC#CCCCCCCCCCCCSCC [3-thia-15-heptadecyn]
degradation time in vivo [4]: substantially increased degradation time in vivo
